Several values for one entry are separate records, joined by “and”; a condition that tells them apart may be missing. Equal entries are not always repeated.
Key:
XO = XO (Bos taurus, UniProt P80457); conditions: 3 μM allopurinol, 2 μM xanthine, 2.56 nM XO, pH 7.4, 37 °C
[1] = biological target: T1, Purine nucleoside phosphorylase (PNP) (Homo sapiens, UniProt P00491); parameters: method as in PMID 5653179, PMID 121041; conditions: cited from earlier work
T1 construct: purchased Sigma-Aldrich; host or cells: E. coli
T1 sequence (P00491 1-289): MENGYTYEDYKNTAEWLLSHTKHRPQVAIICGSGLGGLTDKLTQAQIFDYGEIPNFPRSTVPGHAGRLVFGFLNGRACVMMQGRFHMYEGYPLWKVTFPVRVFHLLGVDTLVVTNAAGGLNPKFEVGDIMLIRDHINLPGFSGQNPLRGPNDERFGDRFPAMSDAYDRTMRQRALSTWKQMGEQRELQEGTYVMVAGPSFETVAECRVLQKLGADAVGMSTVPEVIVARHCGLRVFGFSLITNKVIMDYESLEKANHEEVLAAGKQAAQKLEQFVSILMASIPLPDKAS

XO type enzyme = biological target: T2, XO type enzyme (Bos taurus, UniProt P80457); assay: half-life of the Ered•oxypurinol complex (activity recovery); assay type: biochemical, bovine
T2 construct: Bovine milk was obtained from the animal farm of the Nippon Veterinary and Life Science University; from tissue; host or cells: bovine milk
T2 sequence (P80457 whole entry): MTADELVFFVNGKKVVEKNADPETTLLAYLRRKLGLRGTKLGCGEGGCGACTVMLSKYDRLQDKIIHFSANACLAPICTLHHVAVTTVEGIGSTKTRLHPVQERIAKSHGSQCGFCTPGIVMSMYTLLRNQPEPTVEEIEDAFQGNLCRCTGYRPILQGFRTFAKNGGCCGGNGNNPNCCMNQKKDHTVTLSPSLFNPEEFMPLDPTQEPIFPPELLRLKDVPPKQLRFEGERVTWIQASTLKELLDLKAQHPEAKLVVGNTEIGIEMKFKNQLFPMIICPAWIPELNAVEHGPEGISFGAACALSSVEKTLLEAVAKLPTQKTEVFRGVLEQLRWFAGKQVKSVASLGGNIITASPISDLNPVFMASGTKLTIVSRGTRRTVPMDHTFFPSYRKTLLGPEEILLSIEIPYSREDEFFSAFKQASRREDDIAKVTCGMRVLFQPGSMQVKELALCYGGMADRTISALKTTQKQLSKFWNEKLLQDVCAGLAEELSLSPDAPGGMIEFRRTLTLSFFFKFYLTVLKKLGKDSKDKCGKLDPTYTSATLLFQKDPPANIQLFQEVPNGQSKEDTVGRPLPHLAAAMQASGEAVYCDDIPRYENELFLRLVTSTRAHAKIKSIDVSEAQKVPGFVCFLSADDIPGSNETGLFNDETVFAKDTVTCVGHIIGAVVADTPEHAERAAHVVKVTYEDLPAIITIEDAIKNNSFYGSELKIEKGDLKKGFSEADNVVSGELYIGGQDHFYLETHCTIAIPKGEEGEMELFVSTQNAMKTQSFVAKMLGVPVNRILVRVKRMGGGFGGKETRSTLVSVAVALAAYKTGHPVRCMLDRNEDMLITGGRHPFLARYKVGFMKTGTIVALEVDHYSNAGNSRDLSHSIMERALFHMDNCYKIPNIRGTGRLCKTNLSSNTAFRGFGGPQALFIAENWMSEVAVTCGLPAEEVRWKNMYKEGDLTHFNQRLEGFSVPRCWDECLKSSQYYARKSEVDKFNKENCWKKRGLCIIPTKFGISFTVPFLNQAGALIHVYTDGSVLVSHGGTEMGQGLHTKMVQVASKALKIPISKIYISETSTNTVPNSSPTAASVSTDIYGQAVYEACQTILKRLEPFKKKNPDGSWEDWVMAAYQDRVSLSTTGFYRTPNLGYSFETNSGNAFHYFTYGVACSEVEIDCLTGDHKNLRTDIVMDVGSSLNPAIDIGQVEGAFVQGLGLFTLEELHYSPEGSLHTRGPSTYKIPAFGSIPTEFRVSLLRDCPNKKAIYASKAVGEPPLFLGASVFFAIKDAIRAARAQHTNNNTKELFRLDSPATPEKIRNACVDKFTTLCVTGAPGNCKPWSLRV
Description: We next examined the half-life of the Ered•oxypurinol complex under more physiological conditions.
The main figure plots activity (%) against time.
Uric acid production was measured at 295 nm with UV-1800 Spectrophotometer at 25 °C. The activity recovery was followed overtime until the activity to flavin ratio reached approximately 200, indicating full reactivation.

[2] = biological target: T1, Purine nucleoside phosphorylase (PNP); assay: PNP activity assay (inosine degradation, HPLC); assay type: biochemical; conditions: human recombinant PNP
Description: Plasma allopurinol never reaches that concentration, but oxypurinol concentrations could ([34], [35]). Although oxypurinol has been reported to have a stronger inhibitory effect than allopurinol ([32], [36]), the results were obtained prior to several reports on the cooperativity of PNP ([37]). […] This nonideal behavior may be a manifestation of the well-established allosteric properties of PNP ([37]).
Purine nucleoside phosphorylase (human, recombinantly expressed in E. coli) was purchased from Sigma-Aldrich. The reaction solution for inosine hydrolysis consisted of 50 mM KPB (pH 7.4), with varying concentrations of inosine and oxypurinol.
A295 indicates the concentration of uric acid yielded by XOR. […] A295 indicates the concentration of uric acid yielded by XOR. Figure S2. The XOR inhibition mode of oxypurinol.A–G, Lineweaver-Burk plots were generated to visualize data and estimated the inhibition patterns. Data are representative of least two independent experiments. […] The same as in A except that 1.23 nM XDH was used instead of XO and 500 μM NAD^+ was added to the reaction solution. […] The same as in D except that hypoxanthine was used instead of xanthine. […] The same as in D except that febuxostat was used instead of oxypurinol. […] The same as in F except that hypoxanthine was used instead of xanthine. Figure S3. […] Hypoxanthine, xanthine, and uric acid were measured by HPLC.

Chain of XO (P80457 whole entry): as above

Oc1ncnc2[nH]ncc12 [Allopurinol]
immediate accumulation of oxypurinol (XO): 0.5 µM | time at which xanthine was completely converted to uric acid (XO): 300 min | time for which uric acid production was stopped (XO): up to 60 min | Ki [1]: > 200 µM

O=c1[nH]c(=O)c2c[nH]nc2[nH]1 [Oxypurinol]
half-life of the Ered•oxypurinol complex (XO type enzyme; pH 7.4, 25 °C): 552 min and 551.9 min | half-life of the Ered•oxypurinol complex (XO type enzyme; pH 7.4, 37 °C): 70 min and 72.9 min | half-life of the Ered•oxypurinol complex (XO type enzyme; pH 8.5, 37 °C): 70 min and 70.6 min | inhibition of PNP [2]: weakly but allosterically inhibits PNP | mode of inhibition for inosine ([2]; 50 mM KPB pH 7.4, 0-1000 μM oxypurinol): competitive

Source: paper PMC10511816 (The Journal of Biological Chemistry, 2023)
